Source: US11834489B2 (priority 2017, dated 2023)

Assays:
[1] = molecular target: β2AR-Gs complex (Homo sapiens, UniProt P07550, C265A/C327S/C341L/C378A/C406A/C77V/L266C/N148C); format: biochemical; details: normalized to adrenaline
[2] = molecular target: labelled β2AR and biotinylated Gs (Homo sapiens, UniProt P07550, C265A/C327S/C341L/C378A/C406A/C77V/L266C/N148C); format: biochemical; details: mean ± s.e.m.
[3] = system: β2AR; details: compared to salbutamol, reference 27; cited from earlier work
[4] = molecular target: Cy3B*/Cy7*-labelled β2Δ6-N148C/L266C with Gs(GDP) (Homo sapiens, UniProt P07550, C265A/C327S/C341L/C378A/C406A/C77V/L266C/N148C); format: biochemical; details: transition rate from high- to low-FRET states; saturating ligand, 30 μM GDP, Gs titration

CNCC(O)c1ccc(O)c(O)c1 (centres unmarked) [ADR, adrenaline]
η2 ([1]; apparent EC50 for GDP binding): 1.0 | η1 ([1]; product of apparent kon and khigh→low): 1.0 | Lifetime, Biotin-Gs-immobilized, +GDP ([2]; after addition of 30 μM GDP): 11.8 ± 1.2 s | Lifetime, Biotin-Gs-immobilized, +GTP ([2]; after addition of 100 μM GTP): 6.4 ± 0.1 s | Lifetime, M1-immobilized ([2]; biotin-M1-Fab-immobilized β2AR in the absence of Gs): 13.2 ± 3.4 min | Lifetime, Biotin-Gs-immobilized, GNP-free ([2]; nucleotide-free state): 11.2 ± 5.1 min | extent of [3H]GDP release [3]: greater extent of [^3H]GDP release | khigh→low [4]: 0.7 s⁻¹
